In brackets after ≈: the same amount, converted by molar mass. Activity calls are given as the source filed them. No cut-off for these calls is given here. Positions of bridges follow the written chain, without caps; N, C: chain ends. Residues, ends and D or L forms follow the SMILES beside them.
Tests used:
Escherichia coli [1] = assay: Antimicrobial activity against Escherichia coli KCTC 1682 after 18 hrs; assay type: functional; conditions: KCTC 1682, 18 h
Salmonella typhimurium = assay: Antimicrobial activity against Salmonella typhimurium KCTC 1926 after 18 hrs; assay type: functional, Salmonella enterica subsp. enterica serovar Typhimurium; conditions: Salmonella enterica, KCTC 1926, 18 h
Pseudomonas aeruginosa [2] = assay: Antimicrobial activity against Pseudomonas aeruginosa KCTC 1637 after 18 hrs; assay type: functional; conditions: KCTC 1637, 18 h
Bacillus subtilis = assay: Antimicrobial activity against Bacillus subtilis KCTC 3068 after 18 hrs; assay type: functional; conditions: KCTC 3068, 18 h
Staphylococcus aureus [3] = assay: Antimicrobial activity against Staphylococcus aureus KCTC 1621 after 18 hrs; assay type: functional; conditions: KCTC 1621, 18 h
[4] = test system: Staphylococcus epidermidis; assay: Antimicrobial activity against Staphylococcus epidermidis KCTC 1617 after 18 hrs; assay type: functional; conditions: KCTC 1617, 18 h
Staphylococcus aureus [5] = assay: Antimicrobial activity against methicillin-resistant Staphylococcus aureus CCARM 3089 after 18 hrs; assay type: functional; conditions: CCARM 3089, 18 h
Staphylococcus aureus [6] = assay: Antimicrobial activity against methicillin-resistant Staphylococcus aureus CCARM 3090 after 18 hrs; assay type: functional; conditions: CCARM 3090, 18 h
Staphylococcus aureus [7] = assay: Antimicrobial activity against methicillin-resistant Staphylococcus aureus CCARM 3095 after 18 hrs; assay type: functional; conditions: CCARM 3095, 18 h
Enterococcus faecium = assay: Antimicrobial activity against vancomycin-resistant Enterococcus faecium ATCC 51559 after 18 hrs; assay type: functional; conditions: ATCC 51559, 18 h
Pseudomonas aeruginosa [8] = assay: Antimicrobial activity against multidrug-resistant Pseudomonas aeruginosa CCARM 2095 after 18 hrs; assay type: functional; conditions: CCARM 2095, 18 h
Staphylococcus aureus [9] = assay: Induction of cytoplasmic membrane depolarization in Staphylococcus aureus KCTC 1621 at 2 to 8 times MIC concentration by DiSC3(5)-dye based fluorescence spectrophotometry; assay type: functional, organism-based
Staphylococcus aureus [10] = assay: Induction of membrane permeabilization in Staphylococcus aureus KCTC 1621 at 2 to 8 times MIC concentration up to 300 secs by SYTOX green uptake assay; assay type: functional, organism-based
Staphylococcus aureus [11] = assay: Bactericidal activity against Staphylococcus aureus KCTC 1621 at MIC concentration after 30 mins by time kill assay; assay type: functional, organism-based
Escherichia coli [12] = assay: Bactericidal activity against Escherichia coli KCTC 1682 at MIC concentration after 120 to 180 mins by time kill assay; assay type: functional, organism-based
Escherichia coli [13] = assay: Induction of membrane permeabilization in Escherichia coli KCTC 1682 assessed as PI-positive cells at 25 uM after 1 to 2 hrs by propidium iodide-staining based flow cytometry (reference value: 2.36%); assay type: functional
DNA = assay: Binding affinity to Escherichia coli pBR322 DNA assessed as inhibition of DNA migration at 32 uM after 1 hr by agarose gel electrophoresis and UV spectroscopy; assay type: nucleic-acid assay
[14] = Hemolytic activity in sheep RBC assessed as free hemoglobin level up to 256 uM by ELISA relative to control; assay type: ADME, cell-based, Ovis aries, Erythrocyte; conditions: sheep red blood cells (erythrocytes), read-out: Activity
RAW264.7 = assay: Cytotoxicity against mouse RAW264.7 cells at 512 uM after 48 hrs by MTT assay; assay type: cell-based; conditions: raw264.7, 48 h

Work on `CC[C@H](C)[C@H](NC(=O)[C@@H](NC(=O)[C@H](Cc1cnc[nH]1)NC(=O)[C@H](CCCNC(=N)N)NC(=O)[C@H](C)NC(=O)[C@H](CCCNC(=N)N)NC(=O)[C@H](CC(C)C)NC(=O)[C@H](CO)NC(=O)[C@H](C)NC(=O)[C@H](CC(C)C)NC(=O)[C@@H](N)CC(N)=O)[C@@H](C)O)C(=O)N1CCC[C@H]1C(=O)N[C@@H](CCC(N)=O)C(=O)N[C@@H](CCCNC(=N)N)C(=O)N[C@@H](CCCCN)C(=O)N[C@@H](Cc1ccccc1)C(=O)NCC(=O)N[C@@H](CCCNC(=N)N)C(=O)N[C@@H](CCCNC(=N)N)C(N)=O` (H-NLASLRARHTIPQRKFGRR-NH2) yielded an MIC (Escherichia coli [1]) of 6.3 µM (≈ 14.3 µg/mL), an MIC (Salmonella typhimurium) of 6.3 µM (≈ 14.3 µg/mL) and an MIC (Pseudomonas aeruginosa [2]) of 6.3 µM (≈ 14.3 µg/mL). For the same compound, the MIC (Bacillus subtilis) was 6.3 µM (≈ 14.3 µg/mL), the MIC (Staphylococcus aureus [3]) was 12.5 µM (≈ 28.5 µg/mL) and the MIC [4] was 6.3 µM (≈ 14.3 µg/mL). The MIC (Staphylococcus aureus [5]) was 12.5 µM (≈ 28.5 µg/mL), the MIC (Staphylococcus aureus [6]) was 25 µM (≈ 56.9 µg/mL) and the MIC (Staphylococcus aureus [7]) was 25 µM (≈ 56.9 µg/mL). The MIC (Enterococcus faecium) was 50 µM (≈ 114 µg/mL), the MIC (Pseudomonas aeruginosa [8]) was 25 µM (≈ 56.9 µg/mL) and the Activity (Staphylococcus aureus [9]) was “inactive”. The Activity (Staphylococcus aureus [10]) was “inactive”.

`CC[C@H](C)[C@H](NC(=O)[C@@H](NC(=O)[C@H](Cc1cnc[nH]1)NC(=O)[C@H](CCCNC(=N)N)NC(=O)[C@H](C)NC(=O)[C@H](CCCNC(=N)N)NC(=O)[C@H](CC(C)C)NC(=O)[C@H](CO)NC(=O)[C@H](C)NC(=O)[C@H](CS)NC(=O)[C@H](CC(C)C)NC(=O)[C@@H](N)CC(N)=O)[C@@H](C)O)C(=O)N1CCC[C@H]1C(=O)N[C@@H](CCC(N)=O)C(=O)N[C@@H](CS)C(=O)N[C@@H](CCCNC(=N)N)C(=O)N[C@@H](CCCCN)C(=O)N[C@@H](Cc1ccccc1)C(=O)NCC(=O)N[C@@H](CCCNC(=N)N)C(=O)N[C@@H](CCCNC(=N)N)C(N)=O` (H-NLCASLRARHTIPQCRKFGRR-NH2) gave an MIC (Escherichia coli [1]) of 12.5 µM (≈ 31 µg/mL), an MIC (Salmonella typhimurium) of 12.5 µM (≈ 31 µg/mL) and an MIC (Pseudomonas aeruginosa [2]) of 12.5 µM (≈ 31 µg/mL). The MIC (Bacillus subtilis) was 12.5 µM (≈ 31 µg/mL), the MIC (Staphylococcus aureus [3]) was 12.5 µM (≈ 31 µg/mL) and the MIC [4] was 12.5 µM (≈ 31 µg/mL). For the same compound, the MIC (Staphylococcus aureus [5]) was 12.5 µM (≈ 31 µg/mL), the MIC (Staphylococcus aureus [6]) was 25 µM (≈ 62.1 µg/mL) and the MIC (Staphylococcus aureus [7]) was 12.5 µM (≈ 31 µg/mL). The MIC (Enterococcus faecium) was 25 µM (≈ 62.1 µg/mL), the MIC (Pseudomonas aeruginosa [8]) was 50 µM (≈ 124 µg/mL) and the Activity (Staphylococcus aureus [9]) was “inactive”. For the same compound, the Activity (Staphylococcus aureus [10]) was “inactive”.

Compound `CC[C@H](C)[C@@H]1NC(=O)[C@H]([C@@H](C)O)NC(=O)[C@H](Cc2cnc[nH]2)NC(=O)[C@H](CCCNC(=N)N)NC(=O)[C@H](C)NC(=O)[C@H](CCCNC(=N)N)NC(=O)[C@H](CC(C)C)NC(=O)[C@H](CO)NC(=O)[C@H](C)NC(=O)[C@@H](NC(=O)[C@H](CC(C)C)NC(=O)[C@@H](N)CC(N)=O)CSSC[C@@H](C(=O)N[C@@H](CCCNC(=N)N)C(=O)N[C@@H](CCCCN)C(=O)N[C@@H](Cc2ccccc2)C(=O)NCC(=O)N[C@@H](CCCNC(=N)N)C(=O)N[C@@H](CCCNC(=N)N)C(N)=O)NC(=O)[C@H](CCC(N)=O)NC(=O)[C@@H]2CCCN2C1=O` (H-NLCASLRARHTIPQCRKFGRR-NH2; disulfide 3-15) has an MIC (Escherichia coli [1]) of 12.5 µM (≈ 31 µg/mL), an MIC (Salmonella typhimurium) of 12.5 µM (≈ 31 µg/mL) and an MIC (Pseudomonas aeruginosa [2]) of 12.5 µM (≈ 31 µg/mL). It also gave an MIC (Bacillus subtilis) of 12.5 µM (≈ 31 µg/mL), an MIC (Staphylococcus aureus [3]) of 12.5 µM (≈ 31 µg/mL) and an MIC [4] of 12.5 µM (≈ 31 µg/mL). It also gave an MIC (Staphylococcus aureus [5]) of 12.5 µM (≈ 31 µg/mL), an MIC (Staphylococcus aureus [6]) of 25 µM (≈ 62 µg/mL) and an MIC (Staphylococcus aureus [7]) of 12.5 µM (≈ 31 µg/mL). The MIC (Enterococcus faecium) was 25 µM (≈ 62 µg/mL), the MIC (Pseudomonas aeruginosa [8]) was 50 µM (≈ 124 µg/mL) and the Activity (Staphylococcus aureus [11]) was “Active”. For the same compound, the Activity (Escherichia coli [12]) was “Active”, the Activity (Staphylococcus aureus [9]) was “inactive” and the Activity (Staphylococcus aureus [10]) was “inactive”. For the same compound, the Activity (Escherichia coli [13]) was 6.39%, the Activity (DNA) was “Active” and the hemolysis [14] was under 1%. The Activity (RAW264.7) was “Non-Toxic”.

From ChEMBL document CHEMBL4257591 (J Med Chem, 2018)
